According to ChEMBL document CHEMBL6078713, “Synthesis and mechanistic studies of 4-aminoquinoline-Isatin molecular hybrids and Schiff's bases as promising antimicrobial agents” (Eur J Med Chem, 2025):
Converted amounts (≈) assume the structure as drawn. The source made the active and inactive calls. The rule behind the calls is not given here.

Assays:
Pseudomonas aeruginosa [1] = assay: Bactericidal activity against Pseudomonas aeruginosa MTCC 2453 assessed as inhibition of bacterial growth incubated overnight; format: functional
Salmonella typhi [2] = assay: Synergistic antibacterial activity against Salmonella typhi assessed as fractional inhibitory concentration index incubated overnight in presence of ciprofloxacin by microdilution checkerboard assay; format: functional, Salmonella enterica subsp. enterica serovar Typhi
Escherichia coli [3] = assay: Antibacterial activity against Escherichia coli MTCC 443 assessed as inhibition of bacterial growth incubated overnight by serial dilution based spectrophotometer; format: functional
Enterococcus faecalis [4] = assay: Synergistic antibacterial activity against Enterococcus faecalis MTCC 439 assessed as inhibition of bacterial growth incubated overnight in presence of ciprofloxacin by serial dilution based spectrophotometer; format: functional
Escherichia coli [5] = assay: Ratio of MBC for antibacterial activity against Escherichia coli MTCC 443 to MIC for bactericidal activity against Escherichia coli MTCC 443; format: functional
Pseudomonas aeruginosa [6] = assay: Antibacterial activity against Pseudomonas aeruginosa MTCC 2453 assessed as diameter of zone of inhibition at MIC incubated overnight by disk diffusion method; format: functional
Escherichia coli [7] = assay: Antibacterial activity against Escherichia coli MTCC 443 assessed as diameter of zone of inhibition at 2 times MIC incubated overnight by disk diffusion method; format: functional
Enterococcus faecalis [8] = assay: Synergistic antibacterial activity against Enterococcus faecalis MTCC 439 assessed as fractional inhibitory concentration index incubated overnight in presence of ciprofloxacin by microdilution checkerboard assay; format: functional
Enterococcus faecalis [9] = assay: Antibacterial activity against Enterococcus faecalis MTCC 439 assessed as inhibition of bacterial growth incubated overnight by serial dilution based spectrophotometer; format: functional
Bacillus subtilis [10] = assay: Antibacterial activity against Bacillus subtilis MTCC 736 assessed as inhibition of bacterial growth incubated overnight by serial dilution based spectrophotometer; format: functional
Staphylococcus aureus [11] = assay: Synergistic antibacterial activity against Staphylococcus aureus MTCC 902 assessed as fractional inhibitory concentration index incubated overnight in presence of ciprofloxacin by microdilution checkerboard assay; format: functional
Escherichia coli [12] = assay: Antibacterial activity against Escherichia coli MTCC 443 assessed as diameter of zone of inhibition at 500 ug/ml by agar disk diffusion method; format: functional; conditions: read-out: DIZ
Pseudomonas aeruginosa [13] = assay: Antibacterial activity against Pseudomonas aeruginosa MTCC 2453 assessed as inhibition of bacterial growth incubated overnight by serial dilution based spectrophotometer; format: functional
Staphylococcus aureus [14] = assay: Antibacterial activity against Staphylococcus aureus MTCC 902 assessed as diameter of zone of inhibition at 500 ug/ml by agar disk diffusion method; format: functional; conditions: read-out: DIZ
Salmonella typhi [15] = assay: Synergistic antibacterial activity against Salmonella typhi assessed as inhibition of bacterial growth incubated overnight in presence of ciprofloxacin by serial dilution based spectrophotometer; format: functional, Salmonella enterica subsp. enterica serovar Typhi; conditions: Salmonella enterica
Bacillus subtilis [16] = assay: Synergistic antibacterial activity against Bacillus subtilis MTCC 736 assessed as fractional inhibitory concentration index incubated overnight in presence of ciprofloxacin by microdilution checkerboard assay; format: functional
Pseudomonas aeruginosa [17] = assay: Synergistic antibacterial activity against Pseudomonas aeruginosa MTCC 2453 assessed as fractional inhibitory concentration index incubated overnight in presence of ciprofloxacin by microdilution checkerboard assay; format: functional
Bacillus subtilis [18] = assay: Antibacterial activity against Bacillus subtilis MTCC 736 assessed as diameter of zone of inhibition at 500 ug/ml by agar disk diffusion method; format: functional; conditions: read-out: DIZ
Bacillus subtilis [19] = assay: Synergistic antibacterial activity against Bacillus subtilis MTCC 736 assessed as inhibition of bacterial growth incubated overnight in presence of ciprofloxacin by serial dilution based spectrophotometer; format: functional
Salmonella typhi [20] = assay: Antibacterial activity against Salmonella typhi assessed as diameter of zone of inhibition at 0.5 times MIC incubated overnight by disk diffusion method; format: functional, Salmonella enterica subsp. enterica serovar Typhi
Enterococcus faecalis [21] = assay: Bactericidal activity against Enterococcus faecalis MTCC 439 assessed as inhibition of bacterial growth incubated overnight; format: functional
Pseudomonas aeruginosa [22] = assay: Antibacterial activity against Pseudomonas aeruginosa MTCC 2453 assessed as diameter of zone of inhibition at 500 ug/ml by agar disk diffusion method; format: functional; conditions: read-out: DIZ
Salmonella typhi [23] = assay: Antibacterial activity against Salmonella typhi assessed as inhibition of bacterial growth incubated overnight by serial dilution based spectrophotometer; format: functional, Salmonella enterica subsp. enterica serovar Typhi; conditions: Salmonella enterica
Staphylococcus aureus [24] = assay: Antibacterial activity against Staphylococcus aureus MTCC 902 assessed as diameter of zone of inhibition at MIC incubated overnight by disk diffusion method; format: functional
Escherichia coli [25] = assay: Synergistic antibacterial activity against Escherichia coli MTCC 443 assessed as fractional inhibitory concentration index incubated overnight in presence of ciprofloxacin by microdilution checkerboard assay; format: functional
Bacillus subtilis [26] = assay: Bactericidal activity against Bacillus subtilis MTCC 736 assessed as inhibition of bacterial growth incubated overnight; format: functional
Staphylococcus aureus [27] = assay: Bacteriostatic activity against Staphylococcus aureus MTCC 902 assessed as reduction in bacterial growth at 2 times MIC measured upto 24 hrs by absorbance based assay; format: functional, organism-based
Staphylococcus aureus [28] = assay: Antibacterial activity against Staphylococcus aureus MTCC 902 assessed as diameter of zone of inhibition at 2 times MIC incubated overnight by disk diffusion method; format: functional
Pseudomonas aeruginosa [29] = assay: Synergistic antibacterial activity against Pseudomonas aeruginosa MTCC 2453 assessed as inhibition of bacterial growth incubated overnight in presence of ciprofloxacin by serial dilution based spectrophotometer; format: functional
Enterococcus faecalis [30] = assay: Antibacterial activity against Enterococcus faecalis MTCC 439 assessed as diameter of zone of inhibition at MIC incubated overnight by disk diffusion method; format: functional
Staphylococcus aureus [31] = assay: Bactericidal activity against Staphylococcus aureus MTCC 902 assessed as inhibition of bacterial growth incubated overnight; format: functional
Escherichia coli [32] = assay: Bacteriostatic activity against Escherichia coli MTCC 443 assessed as reduction in bacterial growth at 2 times MIC measured upto 24 hrs by absorbance based assay; format: functional, organism-based
Enterococcus faecalis [33] = assay: Antibacterial activity against Enterococcus faecalis MTCC 439 assessed as diameter of zone of inhibition at 500 ug/ml by agar disk diffusion method; format: functional; conditions: read-out: DIZ
Salmonella typhi [34] = assay: Ratio of MBC for antibacterial activity against Salmonella typhi to MIC for bactericidal activity against Salmonella typhi; format: functional, Salmonella enterica subsp. enterica serovar Typhi
Escherichia coli [35] = assay: Antibacterial activity against Escherichia coli MTCC 443 assessed as diameter of zone of inhibition at 0.5 times MIC incubated overnight by disk diffusion method; format: functional
Enterococcus faecalis [36] = assay: Antibacterial activity against Enterococcus faecalis MTCC 439 assessed as diameter of zone of inhibition at 0.5 times MIC incubated overnight by disk diffusion method; format: functional
Enterococcus faecalis [37] = assay: Ratio of MBC for antibacterial activity against Enterococcus faecalis MTCC 439 to MIC for bactericidal activity against Enterococcus faecalis MTCC 439; format: functional
Salmonella typhi [38] = assay: Antibacterial activity against Salmonella typhi assessed as diameter of zone of inhibition at MIC incubated overnight by disk diffusion method; format: functional, Salmonella enterica subsp. enterica serovar Typhi
Pseudomonas aeruginosa [39] = assay: Ratio of MBC for antibacterial activity against Pseudomonas aeruginosa MTCC 2453 to MIC for bactericidal activity against Pseudomonas aeruginosa MTCC 2453; format: functional
Bacillus subtilis [40] = assay: Ratio of MBC for antibacterial activity against Bacillus subtilis MTCC 736 to MIC for bactericidal activity against Bacillus subtilis MTCC 736; format: functional
Escherichia coli [41] = assay: Bactericidal activity against Escherichia coli MTCC 443 assessed as inhibition of bacterial growth incubated overnight; format: functional
Salmonella typhi [42] = assay: Bactericidal activity against Salmonella typhi assessed as inhibition of bacterial growth incubated overnight; format: functional, Salmonella enterica subsp. enterica serovar Typhi; conditions: Salmonella enterica
Escherichia coli [43] = assay: Synergistic antibacterial activity against Escherichia coli MTCC 443 assessed as inhibition of bacterial growth incubated overnight in presence of ciprofloxacin by serial dilution based spectrophotometer; format: functional

Structure (SMILES): O=[N+]([O-])c1ccccc1/C=N/CCNc1ccnc2cc(Cl)ccc12
- MBC (Pseudomonas aeruginosa [1]): 128 µg/mL (≈ 361 µM)
- fractional inhibitory concentration index (FICI) (Salmonella typhi [2]): 0.077
- MIC (Escherichia coli [3]): 128 µg/mL (≈ 361 µM)
- MIC (Enterococcus faecalis [4]): 2 µg/mL
- Ratio (Escherichia coli [5]): 1
- diameter of the inhibition zone (DIZ) (Pseudomonas aeruginosa [6]): 8 mm
- diameter of the inhibition zone (DIZ) (Escherichia coli [7]): 9 mm
- fractional inhibitory concentration index (FICI) (Enterococcus faecalis [8]): 0.265
- MIC (Enterococcus faecalis [9]): 128 µg/mL (≈ 361 µM)
- MIC (Bacillus subtilis [10]): 128 µg/mL (≈ 361 µM)
- fractional inhibitory concentration index (FICI) (Staphylococcus aureus [11]): 1.25
- zone of inhibition at 500 µg/mL (Escherichia coli [12]): 11 mm
- MIC (Pseudomonas aeruginosa [13]): 128 µg/mL (≈ 361 µM)
- zone of inhibition at 500 µg/mL (Staphylococcus aureus [14]): 10 mm
- MIC (Salmonella typhi [15]): 1 µg/mL
- fractional inhibitory concentration index (FICI) (Bacillus subtilis [16]): 0.5
- fractional inhibitory concentration index (FICI) (Pseudomonas aeruginosa [17]): 1.5
- zone of inhibition at 500 µg/mL (Bacillus subtilis [18]): 12 mm
- MIC (Bacillus subtilis [19]): 32 µg/mL
- diameter of the inhibition zone (DIZ) (Salmonella typhi [20]): 6 mm
- MBC (Enterococcus faecalis [21]): 256 µg/mL (≈ 722 µM)
- zone of inhibition at 500 µg/mL (Pseudomonas aeruginosa [22]): 11 mm
- MIC (Salmonella typhi [23]): 64 µg/mL (≈ 180 µM)
- diameter of the inhibition zone (DIZ) (Staphylococcus aureus [24]): 8 mm
- fractional inhibitory concentration index (FICI) (Escherichia coli [25]): 0.124
- MBC (Bacillus subtilis [26]): 128 µg/mL (≈ 361 µM)
- Activity (Staphylococcus aureus [27]): Active
- diameter of the inhibition zone (DIZ) (Staphylococcus aureus [28]): 9 mm
- MIC (Pseudomonas aeruginosa [29]): 64 µg/mL
- diameter of the inhibition zone (DIZ) (Enterococcus faecalis [30]): 10 mm
- MBC (Staphylococcus aureus [31]): 256 µg/mL (≈ 722 µM)
- Activity (Escherichia coli [32]): Active
- zone of inhibition at 500 µg/mL (Enterococcus faecalis [33]): 13 mm
- Ratio (Salmonella typhi [34]): 1
- diameter of the inhibition zone (DIZ) (Escherichia coli [35]): 6 mm
- diameter of the inhibition zone (DIZ) (Enterococcus faecalis [36]): 9 mm
- Ratio (Enterococcus faecalis [37]): 2
- diameter of the inhibition zone (DIZ) (Salmonella typhi [38]): 11 mm
- Ratio (Pseudomonas aeruginosa [39]): 1
- Ratio (Bacillus subtilis [40]): 1
- MBC (Escherichia coli [41]): 128 µg/mL (≈ 361 µM)
- MBC (Salmonella typhi [42]): 64 µg/mL (≈ 180 µM)
- MIC (Escherichia coli [43]): 8 µg/mL

Structure (SMILES): Clc1ccc2c(NCC/N=C/c3ccc4ccccc4n3)ccnc2c1
- MBC (Pseudomonas aeruginosa [1]): 512 µg/mL (≈ 1420 µM)
- fractional inhibitory concentration index (FICI) (Salmonella typhi [2]): 0.093
- MIC (Escherichia coli [3]): 128 µg/mL (≈ 355 µM)
- MIC (Enterococcus faecalis [4]): 16 µg/mL
- Ratio (Escherichia coli [5]): 1
- diameter of the inhibition zone (DIZ) (Pseudomonas aeruginosa [6]): 6 mm
- diameter of the inhibition zone (DIZ) (Escherichia coli [7]): 12 mm
- fractional inhibitory concentration index (FICI) (Enterococcus faecalis [8]): 0.312
- MIC (Enterococcus faecalis [9]): 256 µg/mL (≈ 709 µM)
- MIC (Bacillus subtilis [10]): 128 µg/mL (≈ 355 µM)
- fractional inhibitory concentration index (FICI) (Staphylococcus aureus [11]): 1.5
- zone of inhibition at 500 µg/mL (Escherichia coli [12]): 11 mm
- MIC (Pseudomonas aeruginosa [13]): 256 µg/mL (≈ 709 µM)
- zone of inhibition at 500 µg/mL (Staphylococcus aureus [14]): 8 mm
- MIC (Salmonella typhi [15]): 4 µg/mL
- fractional inhibitory concentration index (FICI) (Bacillus subtilis [16]): 1.25
- fractional inhibitory concentration index (FICI) (Pseudomonas aeruginosa [17]): 1.25
- zone of inhibition at 500 µg/mL (Bacillus subtilis [18]): 10 mm
- MIC (Bacillus subtilis [19]): 32 µg/mL
- diameter of the inhibition zone (DIZ) (Salmonella typhi [20]): 9 mm
- MBC (Enterococcus faecalis [21]): 512 µg/mL (≈ 1420 µM)
- zone of inhibition at 500 µg/mL (Pseudomonas aeruginosa [22]): 10 mm
- MIC (Salmonella typhi [23]): 128 µg/mL (≈ 355 µM)
- diameter of the inhibition zone (DIZ) (Staphylococcus aureus [24]): 8 mm
- fractional inhibitory concentration index (FICI) (Escherichia coli [25]): 0.281
- MBC (Bacillus subtilis [26]): 512 µg/mL (≈ 1420 µM)
- Activity (Staphylococcus aureus [27]): Active
- diameter of the inhibition zone (DIZ) (Staphylococcus aureus [28]): 10 mm
- MIC (Pseudomonas aeruginosa [29]): 64 µg/mL
- diameter of the inhibition zone (DIZ) (Enterococcus faecalis [30]): 7 mm
- MBC (Staphylococcus aureus [31]): 512 µg/mL (≈ 1420 µM)
- Activity (Escherichia coli [32]): Active
- zone of inhibition at 500 µg/mL (Enterococcus faecalis [33]): 10 mm
- Ratio (Salmonella typhi [34]): 1
- diameter of the inhibition zone (DIZ) (Escherichia coli [35]): 11 mm
- diameter of the inhibition zone (DIZ) (Enterococcus faecalis [36]): 7 mm
- Ratio (Enterococcus faecalis [37]): 2
- diameter of the inhibition zone (DIZ) (Salmonella typhi [38]): 10 mm
- Ratio (Pseudomonas aeruginosa [39]): 2
- Ratio (Bacillus subtilis [40]): 4
- MBC (Escherichia coli [41]): 128 µg/mL (≈ 355 µM)
- MBC (Salmonella typhi [42]): 128 µg/mL (≈ 355 µM)
- MIC (Escherichia coli [43]): 4 µg/mL
